Source: PMC10754035 (Cancer Research Communications, 2023)

Target: T1, GTP-KRAS G12D binding to GST-RBD (Homo sapiens, UniProt P01116, G12D)
T1 construct: Human His-tagged KRAS4B (1-169) G12D, G12V and G12C were custom synthesized; Addgene (GST-RBD) Addgene 13338; host or cells: E. coli BL21 star (DE3)
Test: KRAS G12D/GST-RBD pulldown assay
Format: biochemical
Settings: GST pulldown, Fig. 2 legend; read-out: IC50, inhibition of GTP-KRAS G12D/GST-RBD binding
Protocol: For pulldown experiment, KRAS G12D was preloaded with either GTP or GDP as described above. GDP- or GTP-bound KRAS G12D proteins (250 nmol/L in 100 µL) were then incubated with indicated compound at 37°C for 15–16 minutes. GST-RBD (final 500 nmol/L) was then added and the mixture rocked at 37°C for 1 hour. Pierce glutathione agarose beads (Thermo Fisher Scientific; 20 µL) were then added and the mixture rocked at 37°C for 1 hour. The beads were then washed and the samples were processed for SDS-PAGE and Western blotting with respective antibodies to check the interaction between KRAS-GTP and GST-RBD proteins in presence or absence of the compounds. All the protein dilutions and washes were carried out in a buffer containing 25 mmol/L Tris (pH 7.5), 100 mmol/L NaCl, 5 mmol/L MgCl2, 1% NP-40, 5% glycerol, and 0.1 mmol/L DTT.
Expression and purification of GST-RBD: The Raf1-GST-RBD in pGEX-2T vector in DH5α cells was obtained from Addgene (Raf1 GST RBD 1-149, Plasmid catalog # 13338). GST-RBD plasmid DNA was transformed in BL21*(DE3) bacteria, streaked on agar plate to obtain the colonies . A distinct colony was picked and grown in ampicillin selection media to OD600 of around 0.6-0.8 before induction with IPTG (0.5 mM). Bacterial pellet was resuspended with lysis buffer (50 mM Tris HCL (pH 7.5), 150 mM NaCl, 0.5% Triton X-100, 5 mM MgCl2, 1 mM DTT, 10% Glycerol, 3 mM β-mercaptoethanol) and homogenized. The homogenized lysate was centrifuged at 14000 rpm at 4 °C for 40 min and the resulting supernatant was collected and filtered. The filtered supernatant was incubated with glutathione agarose (Pierce^TM) beads (Thermo Scientific, USA) at 4 °C for 60 min. After incubation, beads and lysate suspension was passed through Bio-Rad Econo column. The beads were washed using lysis buffer (as described above), and the GST-RBD eluted with elution buffer (50 mM Tris HCL (pH 7.5), 150 mM NaCl, 0.5% Triton X-100, 5 mM MgCl2, 1 mM DTT, 10% Glycerol, 10 mM Glutathione). Eluted GST-RBD protein fractions were buffer exchanged into 25 mM Tris (pH 7.5), 150 mM NaCl, 0.5 mM DTT and 5 mM MgCl2 buffer and stored at -80°C.
GTP and GDP nucleotide exchange for GST-RBD pull down: KRAS protein was exchanged with GTP (Sigma, USA) and GDP (Sigma, USA) using EDTA- loading procedure. The RAS proteins (235 µM final) were incubated with ~40-fold molar excess of EDTA (10 mM final), and ~45-fold molar excess of either GDP or GTP for 90 min at 37°C. After incubation, the sample was kept on ice for 10 minutes before incubating with ice-cooled 1M MgCl2 (65 mM final) for 20 minutes to stop the reaction. To remove excess unbound nucleotide, EDTA and magnesium, the proteins were re-buffered using PD10 columns (GE Life Sciences) into (25 mM Tris (pH 7.5), 150 mM NaCl, 0.5 mM DTT and 5 mM MgCl2) buffer and concentrated using Millipore spin ultrafiltration devices (10,000 Da cut off, 4,000 x g). The protein concentration was measured using Pierce Rapid GOLD BCA Protein Assay Kit (Thermo Scientific, USA) and aliquots were stored in -80°C.

T1 sequence (P01116 1-169 isoform P01116-2 G12D): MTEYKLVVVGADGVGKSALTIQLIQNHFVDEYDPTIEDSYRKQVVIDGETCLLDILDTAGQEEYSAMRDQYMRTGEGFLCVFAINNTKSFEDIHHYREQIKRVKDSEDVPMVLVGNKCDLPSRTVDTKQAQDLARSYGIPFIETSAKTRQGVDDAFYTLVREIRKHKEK

Q: Which IC50 does the source give for `COC(=O)C1C2C3(C)C(=O)C=CC2(OC3=O)C2CCC3(CBr)CC12CC3=O` (stereo not shown) [KRB-456] here?
A: Its IC50 is 260 nM.
